Paper PMC12750218 (ACS Omega, 2025)

Key:
[1] = tested on: rat plasma proteins; set-up: method as in public assessment report of Otezla (CHMP, 2014); conditions: 0.25 to 2.5 μg/mL, ref public assessment report of Otezla (CHMP, 2014); cited from earlier work
[2] = tested on: rabbit plasma proteins; set-up: method as in public assessment report of Otezla (CHMP, 2014); conditions: 0.25 to 2.5 μg/mL, ref public assessment report of Otezla (CHMP, 2014); cited from earlier work
[3] = tested on: monkey plasma proteins; set-up: method as in public assessment report of Otezla (CHMP, 2014); conditions: 0.25 to 2.5 μg/mL, ref public assessment report of Otezla (CHMP, 2014); cited from earlier work
[4] = tested on: mouse plasma proteins; set-up: method as in public assessment report of Otezla (CHMP, 2014); conditions: 0.25 to 2.5 μg/mL, ref public assessment report of Otezla (CHMP, 2014); cited from earlier work
[5] = tested on: human plasma proteins; set-up: method as in public assessment report of Otezla (CHMP, 2014); conditions: 0.25 to 2.5 μg/mL, ref public assessment report of Otezla (CHMP, 2014); cited from earlier work
[6] = tested on: human α1-acid glycoprotein (AGP); assay: HPLC on chiral AGP column (immobilized protein): retention factors and estimated bound percentage; format: binding; conditions: for Bound percentage (b%): from ln k extrapolated to zero organic modifier, b%=100×k/(1+k); for retention factor (k): chiral AGP column, 2-propanol modifier
Protocol: In this study, AGP was used as the chiral selector. […]
HPLC columns with immobilized proteins can also be used to estimate the percentage of the drug bound to the protein. […] Extrapolating this relationship to a zero organic modifier approximates physiological conditions. The intercept of the regression lines was used to calculate protein binding percentages based on eq .
LC-UV analysis was conducted on an Agilent 1100 HPLC system that included a quaternary pump, an autosampler, a column compartment, and a DAD detector (Agilent Technologies, Waldbronn, Germany). Data analysis was performed with ChemStation software (version: B04.03-SP2). UV detection was set at 230 nm. Stock solutions were prepared in methanol at a concentration of 1 mg/mL (2.17 mM), and further dilutions were made by using deionized water. Samples were prepared to contain 0.1 mg/mL (0.217 mM) R-APR and 0.2 mg/mL (0.434 mM) S-APR, with each analysis performed using a 5 μL injection volume. […] Chromatographic data were evaluated according to standard calculation methods. The retention factor (k) for each enantiomer was determined using the following equation: k=(tr−t0)/t0 1 where tr denotes the retention time of the target enantiomer and t0 represents the column dead time.
Additionally, the retention factor was used to estimate the percentage of protein-bound analytes according to the following formula: b%=100×k/(1+k) 2 Three parallel measurements were performed for each case.

[7] = tested on: human α1-acid glycoprotein (AGP); assay: Ultracentrifugation, free APR in supernatant by HPLC-UV; conditions: isolated human α1-acid glycoprotein (AGP) in PBS, 5 μM APR, 5-15 μM AGP, PBS pH 7.4, 20 °C, 1:1 stoichiometry, K in L mol^–1, read-out: binding (stability) constant log K (converted)
Protocol: The interaction of S-APR and R-APR with AGP was also examined with ultracentrifugation, where increasing protein levels (final concentrations: 0, 5, 10, and 15 μM) were added to a standard amount of the ligand (5 μM) in PBS (pH 7.4). These samples (600 μL) were centrifuged for 16 h at 170,000g and 20 °C employing an Optima MAX-XP ultracentrifuge (Beckman Coulter, Brea, CA, USA). Using these experimental conditions, the protein is slowly sedimented without the disruption of ligand–protein interactions. − , Thereafter, the unbound free fraction of APR was directly quantified in the protein-free supernatants by the HPLC-UV method (see the next paragraph). Binding (association) constants (K; unit: L mol^–1) of APR–AGP complexes were calculated assuming a 1:1 stoichiometry of complex formation: , K=([APR−AGP])/([APR]×[AGP]) 3 where [APR] is the molar concentration of the unbound free ligand, [AGP] is the molar concentration of the unbound free protein, and [APR–AGP] indicates the molar concentration of the ligand–protein complex.
The APR concentration after centrifugation was measured by a validated HPLC-UV method using an XTERRA RP18 column (5 μm, 4.6 × 100 mm), maintained at 40 °C. Isocratic elution was applied using acetonitrile and water containing 0.5% formic acid (60:40, v/v) as the mobile phase. […] The concentration was determined by using the external standard method. […]

[8] = tested on: human α1-acid glycoprotein (AGP); assay: Isothermal titration calorimetry of AGP with APR enantiomers; format: binding; conditions: ITC, aqueous 5% DMSO, 25 °C; for Standard entropy (ΔS) of binding: calculated from ΔG=ΔH−TΔS; for Standard Gibbs free energy (ΔG) of binding: calculated from −RTlnK
Protocol: The working cell contained 1427.5 μL of AGP solution, which was titrated with 5 μL aliquots of the APR solution from the syringe, up to a total volume of 275 μL. The reference cell was filled with aqueous 5% DMSO. Each injection lasted 10 s, with a 1000 s interval between injections. The stirring speed was maintained at 307 rpm.
The resulting isotherm was next fitted with the nonlinear multiparameter regression method (Origin 7.0 MicroCal) using the One Set of Sites model, which assumes that a receptor (macromolecule) has a single class of multiple independent binding sites for a ligand. In this model, each site has the same affinity and thermodynamics for the ligand, and the binding of one ligand molecule to a site is independent of the binding events at other sites. […] The standard Gibbs free energy of binding ΔG and standard entropy of binding ΔS can be next calculated using the basic thermodynamic relationship ΔG=ΔH−TΔS=−RTln⁡K where T is temperature and R is the gas constant.

[9] = tested on: human serum albumin (HSA); set-up: method as in number not printed (authors' recent work, Dombi et al., 2023); conditions: binding to HSA; ref number not printed (authors' recent work, Dombi et al., 2023); cited from earlier work
[10] = 25 °C, sodium phosphate buffer 10 mM pH 7.0, 95% in eluent
[11] = ammonium acetate buffer 10 mM pH 7.0, 85% in eluent
[12] = ammonium acetate buffer 10 mM pH 7.0, 90% in eluent
[13] = ammonium acetate buffer 10 mM pH 7.0, 92.5% in eluent
[14] = ammonium acetate buffer 10 mM pH 7.0, 95% in eluent
[15] = ammonium bicarbonate buffer 10 mM pH 7.0, 85% in eluent
[16] = ammonium bicarbonate buffer 10 mM pH 7.0, 90% in eluent
[17] = ammonium bicarbonate buffer 10 mM pH 7.0, 92.5% in eluent
[18] = ammonium bicarbonate buffer 10 mM pH 7.0, 95% in eluent
[19] = sodium phosphate buffer 10 mM pH 7.0, 85% in eluent
[20] = sodium phosphate buffer 10 mM pH 7.0, 90% in eluent
[21] = sodium phosphate buffer 10 mM pH 7.0, 92.5% in eluent

SMILES | Bound percentage (b%) ([6]; ammonium acetate buffer) | Bound percentage (b%) ([6]; ammonium bicarbonate buffer) | retention factor (k) [6, 10] | retention factor (k) [6, 11] | retention factor (k) [6, 12] | retention factor (k) [6, 13] | retention factor (k) [6, 14] | retention factor (k) [6, 15] | retention factor (k) [6, 16] | retention factor (k) [6, 17] | retention factor (k) [6, 18] | retention factor (k) [6, 19] | retention factor (k) [6, 20] | retention factor (k) [6, 21] | Bound percentage (b%) ([6]; sodium phosphate buffer) | Kd at 16 h, 5 µM [7] | Standard enthalpy (ΔH) of binding [8] | Standard entropy (ΔS) of binding [8] | Standard Gibbs free energy (ΔG) of binding [8] | Stability constant (log K), HSA [9] | also measured
CCOc1cc([C@@H](CS(C)(=O)=O)N2C(=O)c3cccc(NC(C)=O)c3C2=O)ccc1OC [APR, Apremilast] | – | – | – | – | – | – | – | – | – | – | – | – | – | – | – | – | – | – | – | – | average percentage bound to plasma proteins [1]: 90.6%; average percentage bound to plasma proteins [2]: 80.9%; average percentage bound to plasma proteins [3]: 84.3%; average percentage bound to plasma proteins [4]: 88.6%; average percentage bound to plasma proteins [5]: 68.3%
CCOc1cc([C@H](CS(C)(=O)=O)N2C(=O)c3cccc(NC(C)=O)c3C2=O)ccc1OC [R-APR, apremilast] | 98.37% | 99.19% | 3.99 ± 0.02 | 0.33 ± 0.01 | 0.90 ± 0.01 | 1.51 ± 0.03 | 3.29 ± 0.02 | 0.32 ± 0.01 | 0.94 ± 0.01 | 1.62 ± 0.01 | 3.59 ± 0.02 | 0.34 ± 0.01 | 0.98 ± 0.01 | 1.69 ± 0.01 | 99.31% | 2.29 µM | –3.40 ± 0.26 kcal mol^–1 | 13.7 ± 1.5 cal K^–1 mol^–1 | –7.48 ± 0.18 kcal mol^–1 | 3.81 ± 0.05 | –
CCOc1cc([C@@H](CS(C)(=O)=O)N2C(=O)c3cccc(NC(C)=O)c3C2=O)ccc1OC [S-APR, apremilast] | 99.01% | 99.54% | 5.05 ± 0.03 | 0.33 ± 0.01 | 0.90 ± 0.01 | 1.72 ± 0.03 | 4.07 ± 0.02 | 0.32 ± 0.01 | 0.94 ± 0.01 | 1.89 ± 0.01 | 4.44 ± 0.02 | 0.34 ± 0.01 | 0.98 ± 0.01 | 2.00 ± 0.01 | 99.63% | 1.7 µM | –4.80 ± 0.27 kcal mol^–1 | 9.3 ± 1.3 cal K^–1 mol^–1 | –7.57 ± 0.12 kcal mol^–1 | 4.02 ± 0.08 | –
